Test [1] has as its target cathepsin D isolated from the human liver (Homo sapiens (Human), UniProt P07339). Description: In-vitro fluorescence assay for identification of cathepsin D inhibitors. The test is classed as biochemical. The settings on record: cathepsin D 1.4 nM, pH 5.5; read-out: CatD assay IC50-. As for the experimental part:
In order to identify modulators of cathepsin D activity, a continuous enzymatic test was carried out with a synthetic peptide which carries a fluorescent group (MCA=(7-methoxycoumarin-4-yl)acetyl) which is quenched by energy transfer from a Dpn (2,4 dinitrophenyl) group on the same molecule, in Greiner 384-well nb microtitre plates. Cleavage of the peptidic substrate by cathepsin D causes an increase in the fluorescence intensity. In order to determine the efficacy of substances, the time-dependent increase in the fluorescence intensity in the presence of the substance was compared with the time-dependent increase in fluorescence in the absence of substances. The reference substance used was pepstatin A (Sigma-Aldrich). The substrate used was […](Dnp)d-R—NH2 (Enzo Life Sciences, Lörrach). The enzyme employed was cathepsin D isolated from the human liver (Sigma-Aldrich) in a final concentration of 1.4 nM. The test was carried out in 100 mM sodium acetate buffer, 1.25% (v/v) of DMSO, 0.25% (w/v) of Chaps, pH 5.5. 2 μl of each substance solution with serially diluted substance concentration were added to in each case 4 μl of cathepsin D solution and incubated at room temperature for 10 min. The reaction was started by addition of 2 μl of substrate solution (final concentration 5 μM). After carrying out a starting-point fluorescence measurement (excitation wavelength 340 nm/emission wavelength 450 nm) using an Envision multilabel reader (Perkin Elmer), the reaction was incubated at room temperature for 60 min. The amount of peptide fragment cleaved off during the reaction time was subsequently measured by determination of the increase in the fluorescence intensity at 450 nm (excitation wavelength 340 nm).

In test [2] the test system is bovine explants. Description: Cartilage explant assay (pH-induced cartilage degradation, GAG liberation). Particulars: Bos taurus, 72 h, pH 5.5, 3 days. The format is cell-based. From the text: In order to investigate the effect of potential cathepsin D inhibitors on cartilage degradation, a pH-induced model based on bovine explants is used. The pH of the medium in which the explants are cultivated is matched here to the pathophysiological pH of an arthrotic knee. This pH is pH 5.5. In this ex vivo model, potential cathepsin D inhibitors are subsequently investigated for their action with respect to stopping of the cartilage degradation process. If the cartilage is destroyed, glycosaminoglycans (GAGs) are released into the cell culture supernatant. The amount of GAGs liberated can be determined quantitatively with the aid of DMMB (dimethylmethylene blue hydrochloride). If sulfated GAGs are detected using dimethylmethylene blue hydrochloride, the decrease in the absorption at 633 nm is utilised. […] In order to determine the concentration, a calibration line is also recorded using chondroitin sulfate.
The bovine explants are firstly prepared. The induction of the cartilage degradation is carried out in 96-multiwell plates. One explant is cultivated per well. In each case, 200 μl of DMEM (incubation medium pH 5.5) without FBS+30 μg/ml of ascorbic acid are added. Thus negative control, explants (n=4) are incubated at pH 7.4 (without FBS). This control is not included in the calculation of the data, but instead ensures that the pH change has the desired effect on the liberation of GAG. At this point, the substances to be tested are added. No preincubation of the explants is carried out. The explants are cultivated with the corresponding substances for 3 days in the incubator at 37° C. and 7.5% CO2.
In order to investigate the effect of cathepsin D inhibitors on the liberation of GAG (glycosaminoglycan), the substances are employed in the desired concentration and cultivated for 3 days. The compounds to be tested are tested in a first experiment in a concentration of 1 μM and 1% of DMSO. Substances which have an effect of >50% on the liberation of GAG (this corresponds to <50% of the control in the Assay Explorer) are tested in the next experiment at 100 nM and 1% of DMSO. Substances which have an effect of >50% on the liberation of GAG under these conditions (this corresponds to <50% of the control in the Assay Explorer) are tested in a concentration/effect relationship. The compounds here are investigated in the following concentrations: 30 μM, 10 μM, 3 μM, 1 μM, […], 0.1 μM, 0.03 μM, 0.01 μM.
The positive control used is pepstatin A with a concentration of 0.01 μM. The assay window is defined by the control (pH 5.5), defined as 0% effect, and the control pH 5.5+0.01 μM pepstatin A, defined as 100% effect. After incubation for 3 days, the cell culture supernatants are collected and stored at −20° C. or measured directly. The amount of liberated GAG is measured photometrically.
The effect (1 value) of the respective substance in % based on the positive control (pH 5.5+0.01 μM pepstatin A) and the negative control (pH 5.5) is reported for concentrations of 1 μM and 100 nM. The value represents the average of 4 replicants. In the determination of a concentration/effect relationship, an IC50 value is reported to the database (Assay Explorer).
The cell culture supernatants (200 μl) are either measured directly or stored at −20° C. In order to ensure an accurate determination of the concentration (μg/ml of GAG in the supernatant) of GAG, the measurement values must be located in the linear region of the standard curve. In order to ensure this, various dilutions are routinely introduced (1/5, 1/10, 1/20, 1/40). The dilutions are prepared with medium and introduced automatically (Hamilton) into a 384-well plate (15 μl). 60 μl of DMMB solution are likewise added automatically (or using a multichannel pipette). A rapid colour reaction occurs, which is subsequently measured at 633 nm using a plate reader (for example Envision).

Test [3] has as its target recombinant human renin (Homo sapiens (Human), UniProt P00797). Description: In-vitro fluorescence assay for identification of renin-inhibitory activity. Particulars: recombinant human renin 10 nM, pH 7.2; read-out: Renin selectivity IC50. The test is classed as biochemical. As for the experimental part:
In order to identify modulators of renin activity, a continuous enzymatic test was carried out with a synthetic peptide which carries a fluorescent group Edans (=(5-(aminoethyl)aminonaphthalenesulfonate) which is quenched by energy transfer from a Dabcyl (4′-dimethylaminoazobenzene-4-carboxylate) group on the same molecule, in Greiner 384-well microtitre plates. Cleavage of the peptidic substrate by renin causes an increase in the fluorescence intensity. In order to determine the efficacy of substances, the time-dependent increase in the fluorescence intensity in the presence of the substance was compared with the time-dependent increase in fluorescence in the absence of substances. The reference substance used was renin inhibitor 2 (Z-Arg-Arg-Pro-Phe-His-Sta-Ile-His N-Boc-Lys methyl ester Z) (Sigma-Aldrich). The substrate used was renin FRET substrate I (DABCYL-g-Abu-[…]EDANS) (Anaspec, Fremont Calif.). The enzyme employed was recombinant human renin (Proteos, Kalamazoo, Mich.) in a final concentration of 10 nM. The test was carried out in 50 mM Mops buffer, 1.5% (v/v) of DMSO, 0.1% (w/v) of Igepal®, pH 7.2, 0.5% (w/v) of BSA. 2 μl of each substance solution with serially diluted substance concentration were added to in each case 4 μl of renin solution and incubated at room temperature for 15 min. The reaction was started by addition of 4 μl of substrate solution (final concentration 5 μM). After carrying out a starting-point fluorescence measurement (excitation wavelength 340 nm/emission wavelength 495 nm) using an Envision multilabel reader (Perkin Elmer), the reaction was incubated at 37° C. for 60 min. The amount of peptide fragment cleaved off during the reaction time was subsequently measured by determination of the increase in the fluorescence intensity at 495 nm (excitation wavelength 340 nm).

Numbered stars: 1 amine (or outer) side, 2 acyl side, 3 side chain; on linkers, the order of the positions; unused ones are H or OH. Square brackets hold non-standard residues; d marks the D form. Peptide text beside a SMILES is read from it. * marks the point of attachment. X1 = N[C@@H](CC(=O)[*:2])[C@H](Cc1ccccc1)N[*:1]; Tle = CC(C)(C)[C@H](N)C(=O)O; Isovaleryl = CC(C)CC(=O)*; Abu = CC[C@H](N)C(=O)O; Boc = CC(C)(C)OC(=O)* Bounds are passed on as bounds.

recombinant human renin, sequence (P00797 67-406): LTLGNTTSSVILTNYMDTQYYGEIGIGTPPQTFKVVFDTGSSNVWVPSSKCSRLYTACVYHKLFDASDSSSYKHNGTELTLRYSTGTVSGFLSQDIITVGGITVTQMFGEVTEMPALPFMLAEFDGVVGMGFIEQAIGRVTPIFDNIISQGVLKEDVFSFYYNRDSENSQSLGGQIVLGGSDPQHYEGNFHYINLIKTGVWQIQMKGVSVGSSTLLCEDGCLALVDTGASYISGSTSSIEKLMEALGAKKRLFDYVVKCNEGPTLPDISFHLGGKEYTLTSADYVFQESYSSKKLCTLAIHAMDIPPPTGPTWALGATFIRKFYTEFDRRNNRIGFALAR
cathepsin D isolated from the human liver, sequence (P07339 65-161): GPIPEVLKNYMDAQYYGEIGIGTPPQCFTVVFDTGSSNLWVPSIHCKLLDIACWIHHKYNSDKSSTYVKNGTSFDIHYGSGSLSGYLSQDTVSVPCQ
cathepsin D isolated from the human liver, sequence (P07339 169-412): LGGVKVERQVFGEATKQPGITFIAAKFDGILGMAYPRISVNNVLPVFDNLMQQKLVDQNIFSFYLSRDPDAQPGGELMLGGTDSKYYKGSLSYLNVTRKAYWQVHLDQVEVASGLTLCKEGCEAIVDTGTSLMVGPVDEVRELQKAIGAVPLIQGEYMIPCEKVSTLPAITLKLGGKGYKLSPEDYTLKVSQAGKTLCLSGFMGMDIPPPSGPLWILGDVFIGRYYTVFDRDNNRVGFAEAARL

As to `CC[C@H](C)[C@H](NC(=O)C[C@H](N)[C@H](Cc1ccccc1)NC(=O)[C@@H](NC(=O)Cc1cccc(OC(F)(F)F)c1)[C@@H](C)CC)C(=O)N[C@H](C(=O)O)C(C)C` [Compound 37, (S)-2-[(2S,3S)-2-((3S,4S)-3-Amino-4-{(1S,4S)-3-methyl-2-[2-(3-trifluoromethoxy-phenyl)acetylamino]pentanoylamino}-5-phenylpentanoylamino)-3-methylpentanoylamino]-3-methylbutyric acid], the half-maximal inhibitory concentration (IC50) is 3.2 nM in test [1], 8.2 nM in test [2] and > 30000 nM in test [3].

Regarding `CC[C@H](C)[C@H](NC(=O)C[C@H](N)[C@H](Cc1ccccc1)NC(=O)[C@@H](NC(=O)[C@H](CC(C)C)NC(=O)CC(C)C)C(C)C)C(=O)Nc1cccnc1` [Compound 25, N-[(1S,2S)-2-Methyl-1-(pyridin-3-yl-carbamoyl)butyl]-(S)-3-amino-4-{(S)-(S)-3-methyl-2-[(S)-4-methyl-2-(3-methylbutyryl-amino)pentanoylamino]butyrylamino}-5-phenylpentanamide], the IC50 was 520 nM in test [1], 27.5 nM in test [2] and > 30000 nM in test [3].

As to `CC[C@H](NC(=O)[C@H](CC(C)C)NC(=O)CC(C)C)C(=O)N[C@@H](Cc1ccccc1)[C@@H](N)CC(=O)NCCc1ccc2c(c1)OCO2` [Compound 5, N-(2-Benzo-1,3-dioxol-5-ylethyl)-(3S,4S)-3-amino-4-{(S)-2-[(S)-4-methyl-2-(3-methyl-butyrylamino)pentanoylamino]butyryl-amino}-5-phenylpentanamide], the IC50 in test [1] is 1800 nM; in test [2] it was 7.73 nM; in test [3] it was > 30000 nM.

Turning to `CC[C@H](NC(=O)[C@H](CC(C)C)NC(=O)OC(C)(C)C)C(=O)N[C@@H](Cc1ccccc1)[C@@H](N)CC(=O)N[C@H](C(=O)N[C@H](C(=O)OC)C(C)C)[C@@H](C)CC` [Compound 1, Methyl (S)-2-((2S,3S)-2-{(3S,4S)-3-amino-4-[(S)-2-((S)-2-tert-butoxycarbonylamino-4-methylpentanoylamino)butyrylamino]-5-phenylpentanoylamino}-3-methylpentanoylamino)-3-methylbutyrate] (Boc-L[Abu][X1]IV-OMe), the 50% inhibitory concentration (IC50) in test [1] is 40 nM; in test [2], 3.13 nM.

With `CC[C@H](C)[C@H](NC(=O)C[C@H](N)[C@H](Cc1ccccc1)NC(=O)[C@@H](NC(=O)Cc1cccc(OC(F)(F)F)c1)C(C)C)C(=O)NCCC(C)C` [Compound 36, N-[(1S,2S)-2-Methyl-1-(3-methylbutyl-carbamoyl)butyl]-(S)-3-(S)-amino-4-{(S)-3-methyl-2-[2-(3-trifluoromethoxyphenyl)-acetylamino]butyrylamino}-5-phenyl-penlanamide], the figures for the concentration for half-maximal inhibition (IC50) in test [1], in test [2] and in test [3] were 28 nM, 13.8 nM and > 30000 nM, respectively.

Regarding `CC[C@H](C)[C@H](NC(=O)C[C@H](N)[C@H](Cc1ccccc1)NC(=O)[C@@H](NC(=O)CCc1ccccc1)C(C)C)C(=O)N[C@H](C(=O)OC)C(C)C` [Compound 17, Methyl (S)-2-((2S,3S)-2-{(3S,4S)-3-amino-4-[(S)-3-methyl-2-(3-phenylpropionylamino)butyrylamino]-5-phenylpentanoylamino}-3-methylpentanoylamino)-3-methyl-butyrate], the IC50 in test [2] was 55.2 nM.

For the molecule `CC[C@H](C)[C@H](NC(=O)C[C@H](N)[C@H](Cc1ccccc1)NC(=O)[C@@H](NC(=O)[C@H](CC(C)C)NC(=O)CC(C)C)C(C)(C)C)C(=O)N[C@H](C(=O)OC)C(C)C` [Compound 31, Methyl (S)-2-[(2S,3S)-2-((3S,4S)-3-amino-4-{(S)-3,3-dimethyl-2-[(S)-4-methyl-2-(3-methylbutyrylamino)pentanoylamino]-butyrylamino}-5-phenylpentanoylamino)-3-methylpentanoylamino]-3-methylbutyrate] (Isovaleryl-L[Tle][X1]IV-OMe), the IC50 was 120 nM in test [1] and > 30000 nM in test [3].

As to `CC[C@H](C)[C@H](NC(=O)C[C@H](N)[C@H](Cc1ccccc1)NC(=O)[C@@H](NC(=O)[C@H](CC(C)C)NC(=O)CC(C)C)C(C)C)C(=O)N[C@@H](CC(C)C)C(=O)OC` [Compound 14, Methyl (S)-2-[(2S,3S)-2-((S)-3-(S)-amino-4-{(S)-3-methyl-2-[(S)-4-methyl-2-(3-methyl-butyrylamino)pentanoylamino]butyryl-amino}-5-phenylpentanoylamino)-3-methylpentanoylamino]-4-methylpentanoate] (Isovaleryl-LV[X1]IL-OMe), the figures for the IC50 in test [1] and in test [3] were 160 nM and > 30000 nM, respectively.

As usually defined, the IC50 is the concentration needed to halve the response being measured.

For the origin of these results see patent publication US9345742B2, “Aminostatin derivatives for the treatment of arthrosis” (MERCK PATENT GMBH, priority 2011, dated 2016).
